Values quoted from earlier work as cited in US8703823B2, “Methods for treatment of migraine and symptoms thereof” (priority 2004, dated 2014).

How the values were obtained:
[1] = individuals treated with trimethobenzamide for uncontrolled vomiting
[2] = in vivo

For `COc1cc(C(=O)NCc2ccc(OCCN(C)C)cc2)cc(OC)c1OC.Cl` [trimethobenzamide, N-[p-[2-(dimethylamino)ethoxy]benzyl]-3,4,5-trimethoxybenzamide monohydrochloride], the “Occurrence of adverse diskinesia side effects” value [1] is given as under 2%.

For `COc1cc(N)c(Cl)cc1C(=O)NC1CCN(CCCOc2ccc(F)cc2)CC1OC` (stereo not drawn) [cisapride], the “Migraine prevention / antimigraine effect” value [2] is given as “ineffective”.

In the case of `CCN(CC)CCNC(=O)c1cc(Cl)c(N)cc1OC` [Metoclopramide, metoclopramide], the “Migraine prevention / antimigraine effect” value [2] is given as “exerted an antimigraine effect”.
